Results on 3 compounds are retold here after ChEMBL document CHEMBL3808389, “Stable and biocompatible cystine knot peptides from the marine sponge Asteropus sp” (Bioorg Med Chem, 2016).

The nature of data set [1]: Toxicity in human RBC assessed as hemolytic activity at 50 uM measured after 1 hr by spectrophotometric analysis. The class given is cell-based, Erythrocyte. As to conditions: erythrocyte, 1 h, 50 µM.
Data set [2] deals with RAW264.7. The data set is described as follows: Toxicity in mouse RAW264.7 cells assessed as in induction of Nitric oxide production at 10 or 40 ug/ml measured after 24 hrs by Griess reaction method. In kind it is cell-based. The conditions noted are these: raw264.7, 24 h.
Data set [3] deals with Mus musculus. The data set is described as follows: Toxicity in mouse assessed as behavior changes at 40 mg/kg, ip after 7 days. The class given is organism-based. The conditions noted are these: in vivo, 168 h.
The subject of data set [4] is Mus musculus. Briefly: Toxicity in mouse assessed as paralysis at 40 mg/kg, ip after 12 hrs. As to conditions: in vivo. In kind it is organism-based.
Data set [5] deals with Mus musculus. Briefly: Toxicity in mouse assessed as aggressiveness at 40 mg/kg, ip after 12 hrs. In kind it is organism-based. As to conditions: in vivo.
Data set [6] relates to Mus musculus. The data set is described as follows: Toxicity in mouse assessed as mortality at 40 mg/kg, ip after 7 days. In kind it is organism-based. The conditions noted are these: in vivo, 168 h.
Data set [7] concerns Mus musculus. The data set is described as follows: Toxicity in mouse assessed as appearance changes at 40 mg/kg, ip after 7 days. In kind it is organism-based. As to conditions: in vivo, 168 h.
Data set [8] is described as follows: Thermal stability in Tris-acetate-EDTA buffer of pH 8.3 at 100 degC measured upto 12 hrs by reverse-phase HPLC analysis. In kind it is physicochemical. As to conditions: pH 8.3, 12 h.
Data set [9] in a line: Toxicity in Thamnaconus modestus RBC assessed as hemolytic activity at 0.08 to 50 uM measured after 1 hr by spectrophotometric analysis. The class given is cell-based. The conditions noted are these: erythrocyte.
In data set [10] the test system is Mus musculus. The data set is described as follows: Toxicity in mouse assessed as stiff tail at 40 mg/kg, ip after 12 hrs. The class given is organism-based. As to conditions: in vivo.
The subject of data set [11] is Mus musculus. Briefly: Toxicity in mouse assessed as convulusion at 40 mg/kg, ip after 12 hrs. The conditions noted are these: in vivo. The class given is organism-based.
Data set [12] in a line: Cytotoxicity against rat Ac2F cells at 30 uM. In kind it is cell-based.
Data set [13] deals with RAW264.7. Briefly: Cytotoxicity against mouse RAW264.7 cells assessed as cell viability at 10 or 40 ug/ml measured after 24 hrs by WST assay. As to conditions: raw264.7, 24 h. In kind it is cell-based.
Data set [14] in a line: Toxicity in human RBC assessed as hemolytic activity at 2 uM measured after 1 hr by spectrophotometric analysis. In kind it is cell-based. As to conditions: erythrocyte.

Where a SMILES comes first, the peptide text is derived from it. Bridges are numbered along the chain shown (N, C = ends). [ ]: non-standard residue; d: D form. ξ: configuration not given here. pGlu = O=C1CC[C@@H](C(=O)O)N1; ξpGlu = O=C1CCC(C(=O)O)N1

Regarding `CC[C@H](C)[C@H](NC(=O)[C@@H](NC(=O)[C@H](Cc1ccc(O)cc1)NC(=O)[C@@H]1CSSC[C@@H]2NC(=O)[C@@H]3CCCN3C(=O)[C@H](CC(N)=O)NC(=O)[C@H](Cc3ccccc3)NC(=O)[C@H](CCC(=O)O)NC(=O)[C@H](C(C)C)NC(=O)[C@H](CC(=O)O)NC(=O)[C@@H]3CSSC[C@H](NC(=O)[C@H]([C@@H](C)O)NC(=O)[C@H](CC(C)C)NC(=O)[C@@H]4CCCN4C(=O)[C@@H]4CCCN4C(=O)[C@H](CSSC[C@H](NC(=O)[C@H](CC(=O)O)NC(=O)[C@@H]4CCC(=O)N4)C(=O)N4CCC[C@H]4C(=O)NCC(=O)N[C@@H](CCC(=O)O)C(=O)NCC(=O)N[C@@H](CCC(=O)O)C(=O)N[C@@H](CCC(N)=O)C(=O)N3)NC2=O)C(=O)N[C@@H]([C@@H](C)CC)C(=O)N2CCC[C@H]2C(=O)NCC(=O)N[C@@H](CC(=O)O)C(=O)N2CCC[C@H]2C(=O)N[C@@H](Cc2ccc(O)cc2)C(=O)NCC(=O)N[C@@H]([C@@H](C)CC)C(=O)N1)[C@@H](C)CC)C(=O)O` ([pGlu]DCPGEGEQCDVEFNPCCPPLTCIPGDPYGICYII-OH; disulfide 3-18, 10-23, 17-32), the Activity entry (in data set [1]; in the data set on RAW264.7 [2]; in the data set on Mus musculus [3]; with Mus musculus [4]; with Mus musculus [5]; in the data set with Mus musculus [6]) was “Non-toxic” each time. Also, the Activity result (in the data set with Mus musculus [7]; in data set [9]; in the data set on Mus musculus [10]; in the data set on Mus musculus [11]; in data set [12]; in the data set with RAW264.7 [13]) was “Non-toxic” each time. In addition, the Stability entry in [8] is listed as “Stable”.
Consider `CC[C@H](C)[C@H](NC(=O)CN)C(=O)NCC(=O)N[C@@H](C)C(=O)N[C@H](C(=O)N[C@@H](CC(C)C)C(=O)N[C@@H](CCCCN)C(=O)N[C@H](C(=O)N[C@@H](CC(C)C)C(=O)N[C@H](C(=O)N[C@H](C(=O)NCC(=O)N[C@@H](CC(C)C)C(=O)N1CCC[C@H]1C(=O)N[C@@H](C)C(=O)N[C@@H](CC(C)C)C(=O)N[C@H](C(=O)N[C@@H](CO)C(=O)N[C@@H](Cc1c[nH]c2ccccc12)C(=O)N[C@H](C(=O)N[C@@H](CCCCN)C(=O)N[C@@H](CCCNC(=N)N)C(=O)N[C@@H](CCCCN)C(=O)N[C@@H](CCCNC(=N)N)C(=O)N[C@@H](CCC(N)=O)C(=O)N[C@@H](CCC(N)=O)C(N)=O)[C@@H](C)CC)[C@@H](C)CC)[C@@H](C)O)[C@@H](C)O)C(C)C)C(C)C` [MELITTIN], for which, in data set [14], the Activity entry is “Toxic”.
Take `CC[C@H](C)[C@@H]1NC(=O)[C@@H]2CSSC[C@@H]3NC(=O)[C@H](CO)NC(=O)[C@H](CCC(=O)O)NC(=O)CNC(=O)[C@H](CCC(=O)O)NC(=O)[C@H](Cc4ccccc4)NC(=O)[C@H](C)NC(=O)[C@@H](NC(=O)CNC(=O)C4CCC(=O)N4)CSSC[C@H](NC(=O)[C@H](CSSC[C@@H](C(=O)N[C@@H](Cc4ccc(O)cc4)C(=O)N[C@@H](Cc4ccc(O)cc4)C(=O)N[C@@H](CC(C)C)C(=O)O)NC(=O)[C@H]([C@@H](C)O)NC(=O)CNC(=O)[C@H](CC(=O)O)NC(=O)[C@@H]4CCCN4C(=O)[C@H](CC(N)=O)NC(=O)CNC(=O)[C@@H]4CCCN4C1=O)NC(=O)[C@@H]1CCCN1C(=O)[C@H](Cc1ccc(O)cc1)NC(=O)[C@H](Cc1ccccc1)NC(=O)[C@H](CCC(N)=O)NC(=O)[C@H](C(C)C)NC(=O)[C@H](CC(N)=O)NC3=O)C(=O)N1CCC[C@H]1C(=O)NCC(=O)N[C@@H](CC(C)C)C(=O)NCC(=O)N[C@@H](CC(C)C)C(=O)N[C@@H]([C@@H](C)O)C(=O)N2` (stereo partly specified) ([ξpGlu]GCAFEGESCNVQFYPCCPGLGLTCIPGNPDGTCYYL-OH; disulfide 3-18, 10-25, 17-34): the Activity entry (in data set [1]; in the data set on RAW264.7 [2]; in the data set with Mus musculus [3]; in the data set on Mus musculus [4]; with Mus musculus [5]; in the data set with Mus musculus [6]) was “Non-toxic” throughout. The Activity entry (in the data set on Mus musculus [7]; in [9]; in the data set with Mus musculus [10]; in the data set on Mus musculus [11]; in the data set on RAW264.7 [13]) was “Non-toxic” throughout. The Stability entry in data set [8] is recorded as “Stable”.
